The test system of data set [1] is NHEK. The data set can be described thus: Light microscopy of NHEK grown alone. Particulars: 100 μM EGCG, 24 hour. It counts as cell-based, human.
In data set [2] the test system is Apaf-1. The data set can be described thus: Western blot of Apaf-1 in epidermal keratinocytes. It counts as cell-based, human. To be noted: increasing concentrations of EGCG. The protocol: (§1) Western blot analysis. The keratinocytes and the mammary epithelial cells were placed in KGM-2 and MEGM, respectively, overnight prior to treatment. Cells were lysed, after 24-hour treatment, in RIPA buffer (1% NP-40, 1% sodium deoxycholate, 0.1% SDS, 0.15 M NaCl, 0.01 M sodium phosphate, pH 7.2, and 1% Trasylol) containing proteinase inhibitors (1 mM PMSF, 1 μg/ml each of aprotinin, leupeptin, and pepstatin). The concentration of protein in each sample was determined using the BioRad DC Protein Assay and spectrophotometry. 50 μg of protein from each sample and a BioRad molecular weight standard marker were run on a 10% SDS-PAGE, followed by transfer to nitrocellulose membranes. Nonspecific binding to the membranes was blocked with 10% nonfat milk. Primary polyclonal (rabbit) antibodies and a horseradish peroxidase-conjugated goat anti-rabbit secondary antibody were used in conjunction with the ECL Chemiluminescence Kit (Amersham Pharmacia Biotech, New Jersey) and membranes were exposed to radiographic films for detection. Western blots were digitized for comparison of the intensity for each band using the ImageTool image analysis software program (University of Texas Health Science Center, San Antonio, Tex.). The integrated density of each band was measured using identical 1480 pixel areas of each Apfa-1 or Actin band at a scale of densities from 0 to 255. […]
(In general: In western blotting, separated proteins are transferred to a membrane and probed.)

The subject of data set [3] is normal human mammary epithelial cells (HMEC). In words: Morphology of mammary epithelial cells. The format is cell-based. Particulars: 50 μM EGCG. The procedure: Cell lines and cell culture. The normal human keratinocytes (NHEK CC-2507) were purchased from Cambrex (East Rutherford, N.J.) and maintained in KGM-2 medium (Cambrex). The OSC2 cell line was previously described in Example 1. The OSC2 subclones were established by retroviral transfection of the parental OSC2 cell line. These clones were maintained in 45% Dulbecco's Modified Eagle's Medium (DMEM), 45% Ham's F12 medium and 10% fetal calf serum, 100 I.U/ml penicillin, 100 μg/ml streptomycin and 5 μg/ml hydrocortisone. The normal human mammary epithelial cells (HMEC) were maintained in MEGM medium (Cambrex). All cell cultures were maintained in a 37° C. incubator with 5% CO2. Light photographs were taken with a SPOT RT digital camera system (Diagnostic Instruments, Sterling Heights, Mich.) linked to a Nikon Phase Contrast-2 microscope at an original magnification of 400×. Fluorescent photomicrographs were taken with a SPOT color digital camera system using the ZEISS Axiovert 10. Fluorescence was generated by a ZEISS AttoArc 2 source with an original magnification of 400×. Experiments were repeated three times.

For data set [4], the system named is caspase 14. In words: Apoptosis macroarray, caspase 14 mRNA in NHEK. It counts as cell-based, human. The procedure: To identify additional factors those suppress EGCG -induced apoptosis and facilitate cell differentiation in NHEK, exponentially growing NHEK (Cambrex, Baltimore, Md.) were exposed to 100 μM EGCG for 0, 2, 6 and 24 hours, prior to total RNA isolation using the Qiagen RNeasy mini kit (Valencia, Calif.), which was followed by RT-PCR labeling and hybridization with the Human Apoptosis Macroarray membrane (Sigma-Genosys, The Woodlands, Tex.). Total cell lysates also were collected following a variety of EGCG treatments. The protein levels for caspase 14 and p21 were determined by immuno-blotting using antibodies specific for caspase 14 and p21 (Santa Cruz Biotechnology, Santa Cruz, Calif.).
Normal human epidermal keratinocytes (NHEK; Cambrex), and oral squamous cell carcinoma (OSC2) cells, originally from gingival tissue, were compared. Exponentially growing cells were exposed to 50 or 100 μM EGCG for 0 hours, 2 hours, 6 hours or 24 hours. Cells were harvested for total RNA, which was examined by apoptosis macroarrays (Sigma Genosys), followed by phosphorimagery and data analysis (GeneSpring). Protein production of expressed genes was confirmed by Western blotting of whole cell lysates.

Data set [5] relates to MCF7 (C) cells. In words: Morphological analysis, MCF7(C) cells. The format is cell-based, human. To be noted: EGCG, 48 hours. An excerpt:
Cell lines and cell culture. The normal human keratinocytes (NHEK CC-2507) were purchased from Cambrex (East Rutherford, N.J.) and maintained in KGM-2 medium (Cambrex). The OSC2 cell line was previously described (Osaki et al., Eur J Cancer B Oral Oncol 1994; 30 B:296-301). The breast carcinoma MCF7 cell line was purchased from American Type Culture Collection. The MCF7(C) caspase+cell line “7-3-28 ” was established and tested as previously described (Janicke et al., J Biol Chem 1998; 273:9357-60, Blanc et al., Cancer Res 2000; 60:4386-90). These tumor cells were maintained in 45% Dulbecco's Modified Eagle's Medium (DMEM), 45% Ham's F12 medium and 10% fetal calf serum, 100 I.U/ml penicillin, 100 μg/ml streptomycin and 5 μg/ml hydrocortisone. All cell cultures were maintained in a 37° C. incubator with 5% CO2. Light microscopic photographs were taken with a SPOT RT digital camera system (Diagnostic Instruments) linked to a Nikon Phase Contrast-2 microscope at an original magnification of 200×.

Data set [6] has as its system Apaf-1. The data set can be described thus: Western blot of Apaf-1 in mammary epithelial cells. The format is cell-based, human. To be noted: 15 μM EGCG, 24 h. The protocol:
as §1

Data set [7] deals with NHEK. In words: MTT assay (SDH activity), NHEK. The format is cell-based, human. To be noted: EGCG at various concentrations or 0.2 mg/ml GTP, 24 h. An excerpt: Succinate dehydrogenase activity assay (MTT assay).
In general terms: Tetrazolium assays rely on reduction of a dye to a coloured formazan, in cell work by metabolically active cells.

As for `O=C(O[C@@H]1Cc2c(O)cc(O)cc2O[C@@H]1c1cc(O)c(O)c(O)c1)c1cc(O)c(O)c(O)c1` [EGCG, (−)-epigallocatechin-3-gallate], the cell death result was “showed no cell death” in data set [1] and “Significant cell death was observed” in data set [3] (48 hours). Also, the Apaf-1 levels result in data set [2] was “stable basal levels of Apaf-1”. Besides, the morphology entry is “little change in morphology” in data set [3] (24 hours); “significantly reduced the cell number and produced cell blebbing” in data set [5]. In addition, the “caspase 14 gene expression upregulated” value in data set [4] (100 μM EGCG (Example 10)) is on record as “at least 2 fold”. In addition, in data set [4] (100 μM EGCG, 24 hours), the “caspase 14 mRNA expression above control” value was “approximately three”. Also, the “Apaf-1 protein level increase above control (densitometry)” value in data set [6] was found to be 47%. Besides, in data set [7], the “SDH activity (MTT assay)” value was “not significantly affected”.
